Experimental data: patent US20120021079A1, “Garcinia Mangostana L. and Iridoid Based Formulations” (priority 2010, published 2012)

Tests used:
[1] = Intra- and inter-day precision and stability assays of iridoids by HPLC-PDA; assay type: physicochemical; conditions: 3 consecutive days, HPLC sample solutions
Method: The limits of detection (LOD) and quantitation (LOQ) were defined as the lowest concentrations of analytes in a sample that can be detected and quantified. These LOD and LOQ limits were determined on the basis of signal-to-noise ratios (S/N) of 3:1 and 10:1, respectively. The working solutions of standards 1 and 2 for LOD and LOQ were prepared by diluting them sequentially. The intra- and inter-day precision assays, as well as stability tests were performed by following the method applied to the sample analysis for 3 consecutive days. Accuracy of the method (recovery) was assessed by the recovery percentage of iridoids 1 and 2 in the spiked samples. […] The recovery percentage was calculated using the ratio of concentration detected (actual) to those spiked (theoretical). Variation was evaluated by the relative standard deviation (RSD) of triplicate injections in the HPLC experiments.
The limits of detection (LOD) and quantitation (LOQ) were defined as the lowest concentrations of analytes in a sample that can be detected and quantified. These LOD and LOQ limits were determined on the basis of signal-to-noise ratios (S/N) of 3:1 and 10:1, respectively. […] Repeatability is the degree of agreement between results, when experimental conditions are maintained as constant as possible, and is expressed as the relative standard deviation (RSD) of replicates. […]

E. coli PQ37 [2] = experiment: Anti-genotoxicity test (SOS-chromotest with 4NQO, Example Three); assay type: cell-based; conditions: for induction factor of 4NQO plus iridoid versus vehicle blank: 250 μg mL^−1 iridoid plus 1.25 μg mL^−1 4NQO; for Induction factor: 250 μg ml^−1 DAA or AA together with 1.25 μg ml^−1 4NQO, E. coli PQ37
Method: The primary DNA damage test was performed again, similar to the method described above. […] Induction factors were calculated in the same manner as described above.

E. coli PQ37 [3] = assay type: cell-based; conditions: 250 ug mL^−1 iridoid plus 1.25 ug mL^−1 4NQO; blank = 1
Method: The SOS-chromotest in E. coli PQ37 was used to determine the potential for iridoids in noni fruit from French Polynesia to prevent primary DNA damage. […] Replicate samples were evaluated. […] Following incubation with the samples, 5-bromo-4-chloro-3-indolyl-β-D-galactopyranoside was added to the wells to detect β-galactosidase enzyme activity, which is induced during SOS repair of damaged DNA. The samples were again incubated for 90 minutes and the absorbances of the samples, blank and positive control were measured at 620 nm with a microplate reader. The β-galactosidase enzyme activity induction factor of each material was calculated by dividing the absorbance of the sample at 620 nm by that of the blank, while also correcting for cell viability.

SMILES	stability during investigation period [1]	induction factor of 4NQO plus iridoid versus vehicle blank (E. coli PQ37 [2])	Induction factor (E. coli PQ37 [2])	induction factor (mean±standard deviation) (E. coli PQ37 [3])
CC(=O)OCC1=C[C@H](O)[C@@H]2C(C(=O)O)=CO[C@@H](O[C@@H]3O[C@H](CO)[C@@H](O)[C@H](O)[C@H]3O)[C@H]12 [AA, asperulosidic acid]	stable during investigation period	no statistical difference from that of the vehicle blank	1.06 ± 0.03	
O=C(O)C1=CO[C@@H](O[C@@H]2O[C@H](CO)[C@@H](O)[C@H](O)[C@H]2O)[C@@H]2C(CO)=C[C@H](O)[C@H]12 [DAA, deacetylasperulosidic acid]	stable during investigation period	no statistical difference from that of the vehicle blank	1.08 ± 0.12	0.98±0.02
